The source of these data is patent publication US8686184B2, “Neprilysin inhibitors” (Theravance, Inc., priority 2011, dated 2014).

Some results are limits rather than exact numbers.

In the experiment the target is T1, human neprilysin (EC 3.4.24.11; NEP) (Homo sapiens, UniProt P08473).
T1 construct: purchased R&D Systems, Minneapolis, Minn; 1182-ZN
T1 sequence (P08473 52-750 limits assumed): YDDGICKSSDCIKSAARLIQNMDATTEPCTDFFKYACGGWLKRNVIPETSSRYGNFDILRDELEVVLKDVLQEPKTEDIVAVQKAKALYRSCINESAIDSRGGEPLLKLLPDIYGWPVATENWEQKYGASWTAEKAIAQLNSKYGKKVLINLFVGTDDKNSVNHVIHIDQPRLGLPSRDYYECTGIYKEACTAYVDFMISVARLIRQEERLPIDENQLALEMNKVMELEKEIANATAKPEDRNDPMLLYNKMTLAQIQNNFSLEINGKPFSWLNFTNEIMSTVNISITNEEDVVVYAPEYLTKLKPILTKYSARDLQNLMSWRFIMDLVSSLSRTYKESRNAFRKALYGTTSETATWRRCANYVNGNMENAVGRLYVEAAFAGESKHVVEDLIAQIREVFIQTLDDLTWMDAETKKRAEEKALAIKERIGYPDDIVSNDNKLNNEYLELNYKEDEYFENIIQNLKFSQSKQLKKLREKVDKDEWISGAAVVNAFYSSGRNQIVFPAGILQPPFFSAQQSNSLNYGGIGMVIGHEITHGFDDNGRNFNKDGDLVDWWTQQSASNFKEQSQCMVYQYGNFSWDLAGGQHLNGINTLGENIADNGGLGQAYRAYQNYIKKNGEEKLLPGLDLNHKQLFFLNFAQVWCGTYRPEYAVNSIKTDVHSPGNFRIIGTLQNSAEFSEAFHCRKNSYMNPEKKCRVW
Put plainly: In vitro enzyme inhibition assay at human NEP (fluorogenic peptide substrate). The format is biochemical. Particulars: recombinant human NEP; 37° C.; substrate Mca-D-Arg-Arg-Leu-Dap-(Dnp)-OH 10 μM; values given as ranges; read-out: pKi values at human NEP (converted). In a few lines:
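Recombinant human NEP pre-incubated 30 min at 37 °C with compound (10 μM to 20 pM), then cleaved 20 min at 37 °C with 10 μM Mca-D-Arg-Arg-Leu-Dap-(Dnp)-OH in HEPES pH 7.5, NaCl, Tween-20, 10 μM ZnSO4. Stopped with acetic acid; fluorescence Ex 320/Em 405 nm; apparent Ki from v=v0/[1+(I/K′)] fit, reported as pKi.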
Take `O=C(N[C@H](Cc1ccccc1)[C@@H](O)C(=O)O)c1ccc(N2CCOCC2)c(-c2ccccc2C(=O)O)c1` [Example 10-21, 5′-((1R,2R)-1-Benzyl-2-carboxy-2-hydroxy-ethylcarbamoyl)-2′-morpholin-4-yl-biphenyl-2-carboxylic acid]: the Ki is 12.6 to 100 nM.
Then `Cc1cc(C(=O)N[C@H](Cc2ccccc2)[C@@H](O)C(=O)O)cc(C)c1F` [Example 10-82, (2R,3R)-3-(4-Fluoro-3,5-dimethyl-benzoylamino)-2-hydroxy-4-phenyl-butyric acid], with 12.6 to 100 nM; and `CCc1ccc(C(=O)N[C@H](Cc2ccccc2)[C@@H](O)C(=O)O)cc1-n1c(=O)[nH]c2sc(C)cc2c1=O` [Example 10-65, (2R,3R)-3-[4-Ethyl-3-(6-methyl-2,4-dioxo-1,4-dihydro-2H-thieno[2,3-d]pyrimidin-3-yl)-benzoylamino]-2-hydroxy-4-phenyl-butyric acid], with at most 1 nM.
To `CCc1ccc(C(=O)N[C@H](Cc2ccccc2)[C@@H](O)C(=O)O)cc1NC(=O)Nc1ccccc1` [Example 10-75, (2R,3R)-3-[4-Ethyl-3-(3-phenyl-ureido)-benzoylamino]-2-hydroxy-4-phenyl-butyric acid] belongs 12.6 to 100 nM; to `COc1ccc(C(=O)N[C@H](Cc2ccccc2Cl)[C@@H](O)C(=O)O)cc1-c1ccccc1C(=O)O` [Example 6-7, 5′-[(1R,2R)-2-Carboxy-1-(2-chlorobenzyl)-2-hydroxy-ethylcarbamoyl]-2′-methoxy-biphenyl-2-carboxylic acid], 12.6 to 100 nM.
Then `O=C(N[C@H](Cc1ccccc1Cl)[C@@H](O)C(=O)O)c1ccc(-c2ccccc2C(=O)O)c(F)c1` [Example 6-9, 4′-[(1R,2R)-2-Carboxy-1-(2-chlorobenzyl)-2-hydroxy-ethylcarbamoyl]-2′-fluoro-biphenyl-2-carboxylic acid], with 1.26 to 10 nM.
For `Cc1nnnn1Cc1ccc(C(=O)N[C@H](Cc2ccccc2)[C@@H](O)C(=O)O)cc1` [Example 10-45, (2R,3R)-2-Hydroxy-3-[4-(5-methyl-tetrazol-1-ylmethyl)-benzoylamino]-4-phenyl-butyric acid], the Ki was 12.6 to 100 nM.
Then `O=C(N[C@H](Cc1ccccc1)[C@@H](O)C(=O)O)c1ccc(Cn2cccc2)cc1` [Example 10-44, (2R,3R)-2-Hydroxy-4-phenyl-3-(4-pyrrol-1-ylmethyl-benzoylamino)-butyric acid], with 12.6 to 100 nM; and `O=C(N[C@H](Cc1ccccc1)[C@@H](O)C(=O)O)c1ccc(-n2cccn2)cc1` [Example 10-2, (2R,3R)-2-Hydroxy-4-phenyl-3-(4-pyrazol-1-yl-benzoylamino)-butyric acid], with 12.6 to 100 nM.
On to `CCc1ccc(C(=O)N[C@H](Cc2ccccc2)[C@@H](O)C(=O)O)cc1NC(=O)Nc1ccsc1C(=O)O` [Example 10-78, 3-{3-[5-((1R,2R)-1-Benzyl-2-carboxy-2-hydroxy-ethylcarbamoyl)-2-ethyl-phenyl]-ureido}-thiophene-2-carboxylic acid], for which the Ki was 12.6 to 100 nM.
To `O=C(N[C@H](Cc1ccccc1Cl)[C@@H](O)C(=O)O)c1cc(F)cc(-c2ccccc2C(=O)O)c1` [Example 6-1, 5′-[(1R,2R)-2-Carboxy-1-(2-chlorobenzyl)-2-hydroxy-ethylcarbamoyl]-3′-fluoro-biphenyl-2-carboxylic acid] belongs 1.26 to 10 nM; to `O=C(N[C@H](Cc1ccccc1Cl)[C@@H](O)C(=O)O)c1cc(Cl)c(F)c(-c2ccccc2C(=O)O)c1` [Example 6-4, 5′-[(1R,2R)-2-Carboxy-1-(2-chlorobenzyl)-2-hydroxy-ethylcarbamoyl]-3′-chloro-2′-fluoro-biphenyl-2-carboxylic acid], 1.26 to 10 nM; to `O=C(O)C[C@@H](Cc1ccccc1Cl)NC(=O)c1cccc(-c2ccccc2C(=O)O)c1` [Example 13-2, 3′-[(R)-2-Carboxy-1-(2-chloro-benzyl)-ethylcarbamoyl]-biphenyl-2-carboxylic acid], 1.26 to 10 nM.
Then `O=C(Nc1ccc(C(=O)N[C@H](Cc2ccccc2)[C@@H](O)C(=O)O)cc1)Nc1sccc1C(=O)O` [Example 10-52], with 12.6 to 100 nM; and `O=C(O)Cc1cccc(-c2ccc(C(=O)N[C@H](Cc3ccccc3)[C@@H](O)C(=O)O)cc2)c1` [Example 10-49, (2R,3R)-3-[(3′-Carboxymethyl-biphenyl-4-carbonyl)-amino]-2-hydroxy-4-phenyl-butyric acid], with 12.6 to 100 nM; and `Cc1cc(C)n(-c2cccc(C(=O)N[C@H](Cc3ccccc3)[C@@H](O)C(=O)O)c2)n1` [Example 10-5, (2R,3R)-3-[3-(3,5-Dimethyl-pyrazol-1-yl)-benzoylamino]-2-hydroxy-4-phenyl-butyric acid], with 12.6 to 100 nM.
On to `CCCC1=NN(c2cccc(C(=O)N[C@H](Cc3ccccc3)[C@@H](O)C(=O)O)c2)C(=O)C1` [Example 10-60, (2R,3R)-2-Hydroxy-3-[3-(5-oxo-3-propyl-4,5-dihydro-pyrazol-1-yl)-benzoylamino]-4-phenyl-butyric acid], for which the Ki is 12.6 to 100 nM.
To `O=C(N[C@H](Cc1ccccc1)[C@@H](O)C(=O)O)c1ccc(C2CC2)cc1` [Example 10-39, (2R,3R)-3-(4-Cyclopropyl-benzoylamino)-2-hydroxy-4-phenyl-butyric acid] belongs 12.6 to 100 nM; to `CCc1ccc(C(=O)N[C@H](Cc2ccccc2Cl)[C@@H](O)C(=O)O)cc1N1N=C(C)CC1=O` [Example 6-17, (2R,3R)-4-(2-Chlorophenyl)-3-[4-ethyl-3-(3-methyl-5-oxo-4,5-dihydro-pyrazol-1-yl)-benzoylamino]-2-hydroxy-butyric acid], 1.26 to 10 nM.
